# Results from patent US20230212159A1, “Process for the Production of Ferroportin Inhibitors” (Vifor (International) AG, priority 2020, published 2023).
# Where two headings read alike, the source gives them in different places.
# Target: T1, ferroportin (Fpn) (Mus musculus, UniProt Q9JHI9)
# T1 construct: endogenous in cells; host or cells: J774 mouse macrophage cell line
# T1 sequence (Q9JHI9 1-570): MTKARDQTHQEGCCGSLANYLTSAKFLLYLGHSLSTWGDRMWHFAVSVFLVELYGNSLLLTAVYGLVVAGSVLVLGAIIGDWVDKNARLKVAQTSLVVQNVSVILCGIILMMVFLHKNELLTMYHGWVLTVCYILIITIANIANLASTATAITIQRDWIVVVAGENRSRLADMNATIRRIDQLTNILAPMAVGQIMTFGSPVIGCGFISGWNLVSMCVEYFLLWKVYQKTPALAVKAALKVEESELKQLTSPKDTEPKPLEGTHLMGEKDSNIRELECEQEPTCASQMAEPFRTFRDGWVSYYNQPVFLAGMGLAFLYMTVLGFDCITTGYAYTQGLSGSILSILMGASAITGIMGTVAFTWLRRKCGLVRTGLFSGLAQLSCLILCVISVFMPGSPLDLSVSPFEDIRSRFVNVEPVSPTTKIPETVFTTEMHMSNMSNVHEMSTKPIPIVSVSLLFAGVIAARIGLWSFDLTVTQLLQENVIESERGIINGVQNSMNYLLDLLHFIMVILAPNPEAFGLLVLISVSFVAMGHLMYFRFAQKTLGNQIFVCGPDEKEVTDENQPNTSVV
# Assay: Hepcidin internalization assay (J774)
# Format: cell-based
# Source text: This cellular assay allows quantification of the binding of hepcidin to ferroportin (Fpn) through microscopic detection of internalization of a fluorescently labeled hepcidin into J774 cells. […] Binding of hepcidin to Fpn triggers internalization and degradation of both hepcidin and Fpn. However, the TMR (6-carboxytetramethylrhodamine) fluorophore attached to hepcidin remains associated with the cell after degradation of the hepcidin peptide backbone. Therefore, microscopic detection of cell-associated TMR fluorescence is a measure of hepcidin binding to Fpn and internalization of hepcidin and Fpn. If TMR-hepcidin is prevented from binding to Fpn, cellular TMR fluorescence remains low (Dürrenberger et al, 2013). The effect of small molecular weight Fpn inhibitor compounds in this assay was evaluated in vitro as described below.
# J774 cells, harvested from ca. 80% confluent cultures, were plated at 8x10^5 cells/ml in complete medium (DMEM, 10% FBS, 1% Penicillin-Streptomycin) containing 200 µM Fe(III)NTA (nitrilotriacetic acid), 100 µl per well of 96 well MicroClear plates (Greiner; Cat. 655090) and grown at 37° C. with 5% CO2. After overnight incubation, cells were washed 3 times with prewarmed DMEM w/o phenol red, 30 µl/well of DMEM w/o phenol red was added after the final wash and 10 µl/well of dilution series of test compounds were added in triplicates. J774 cells were pre-incubated with test compounds at 37° C. with 5% CO2 for 15 min. before TMR-hepcidin was added at 25 nM final concentration. Cells were incubated in a total volume of 50 µl at 37° C. with 5% CO2 for 2 hours, then Hoechst 33342 dye was added to a final concentration of 0.5 µg/ml to stain nuclei and further incubated for 10 min. at 37° C. with 5% CO2. Cells were washed 3 times with PBS and fixed in 100 µl of 4% paraformaldehyde in PBS for 15 min. at room temperature. After removal of the paraformaldehyde solution, cells were washed 3 times with PBS leaving 100 µl per well and the plates were sealed with foil plate seal. TMR (530-550 nm excitation / 575-625 nm emission / 400 ms exposure time) and Hoechst 33342 (360-370 nm excitation / 420-460 nm emission / 10 ms exposure time) fluorescence images were acquired using a ScanR plate imager (Olympus) with a 20x high NA objective. Four pictures were acquired per well and fluorescence channel covering ca. 1500 cells per well. The acquired image data was analysed with the ScanR image analysis software. Image analysis included detection of nuclei (Hoechst 33342 fluorescence), identification of cell-associated regions, application of a virtual channel and thresholding for rolling-ball-type background reduction, followed by application of the Sum(Mean) algorithm to measure the TMR fluorescence associated with cells as a quantitative measure for internalized TMR- hepcidin. IC50 values were calculated with the Sum(Mean) raw data using “log(inhibitor) vs. response” curve fitting of Prism 5 software (GraphPad Software Inc., version 5.02). For each data set the fit of the “log(inhibitor) vs. response (three parameters)″ model was compared to the fit of the “log(inhibitor) vs. response - Variable slope (four parameters)″ model and the IC50 data of the preferred model was used. IC50 data of the Compounds according to formula (II) and (II′), that were tested in the hepcidin internalization assay are shown in Table 1.
# [1] = J774 cells, (II) and (II′) tested as 3HCl-salts, n=2, read-out: Hepcidin internalization (J774) IC50
# [2] = average of multiple measurements, hepcidin internalization assay, 3HCl-salts, read-out: J774 IC50
Structure (SMILES),IC50 [1] [nM],IC50 [2] [nM]
O=C(NCc1ncccc1Br)c1coc(CCNCCc2nc3ccccc3[nH]2)n1 [Compound (II′)],5.9,6
O=C(NCc1ncccc1F)c1coc(CCNCCc2nc3ccccc3[nH]2)n1 [Compound (II)],7.3,7
"CC[C@H](C)[C@@H]1NC(=O)[C@@H](NC(=O)[C@@H](NC(=O)[C@@H]2CCCN2C(=O)[C@H](Cc2ccccc2)NC(=O)[C@H](Cc2c[nH]cn2)NC(=O)[C@@H](NC(=O)[C@@H](N)CC(=O)O)[C@@H](C)O)[C@@H](C)CC)CSSC[C@@H](C(=O)N[C@@H](CCCCN)C(=O)N[C@H](C(=O)O)[C@@H](C)O)NC(=O)[C@@H]2CSSC[C@@H]3NC(=O)[C@@H]4CSSC[C@H](NC(=O)[C@H](Cc5ccccc5)NC1=O)C(=O)N[C@@H](CSSC[C@H](NC(=O)[C@H](CCCCN)NC(=O)[C@H](CO)NC(=O)[C@H](CCCNC(=N)N)NC(=O)[C@H](Cc1c[nH]cn1)NC3=O)C(=O)NCC(=O)N[C@@H](CCSC)C(=O)N2)C(=O)NCC(=O)N4 [hepcidin, reference compound]",10.7,–
